Measurements reported in US20230159463A1, “BENZONITRIC HETEROCYCLIC COMPOUND, PREPARATION METHOD THEREFOR AND USE THEREOF” (SHANGHAI ZHONGZE THERAPEUTICS, CO. LTD., priority 2020, published 2023).

Key:
HDAC1 = molecular target: T1, HDAC1 (Homo sapiens, UniProt Q13547); assay: HDAC1 inhibitor screening kit (Biovision), in vitro inhibitory activity; assay type: biochemical
T1 construct: purchased Biovision Company
Description: (§1) The in vitro inhibitory activity of histone deacetylase of the compound was determined according to the instructions of HDAC1 and HDAC6 inhibitor screening kit (Biovision Company).

HDAC6 = molecular target: T2, HDAC6 (Homo sapiens, UniProt Q9UBN7); assay: HDAC6 inhibitor screening kit (Biovision), in vitro inhibitory activity; assay type: biochemical
T2 construct: purchased Biovision Company
T2 sequence (Q9UBN7 1-1215): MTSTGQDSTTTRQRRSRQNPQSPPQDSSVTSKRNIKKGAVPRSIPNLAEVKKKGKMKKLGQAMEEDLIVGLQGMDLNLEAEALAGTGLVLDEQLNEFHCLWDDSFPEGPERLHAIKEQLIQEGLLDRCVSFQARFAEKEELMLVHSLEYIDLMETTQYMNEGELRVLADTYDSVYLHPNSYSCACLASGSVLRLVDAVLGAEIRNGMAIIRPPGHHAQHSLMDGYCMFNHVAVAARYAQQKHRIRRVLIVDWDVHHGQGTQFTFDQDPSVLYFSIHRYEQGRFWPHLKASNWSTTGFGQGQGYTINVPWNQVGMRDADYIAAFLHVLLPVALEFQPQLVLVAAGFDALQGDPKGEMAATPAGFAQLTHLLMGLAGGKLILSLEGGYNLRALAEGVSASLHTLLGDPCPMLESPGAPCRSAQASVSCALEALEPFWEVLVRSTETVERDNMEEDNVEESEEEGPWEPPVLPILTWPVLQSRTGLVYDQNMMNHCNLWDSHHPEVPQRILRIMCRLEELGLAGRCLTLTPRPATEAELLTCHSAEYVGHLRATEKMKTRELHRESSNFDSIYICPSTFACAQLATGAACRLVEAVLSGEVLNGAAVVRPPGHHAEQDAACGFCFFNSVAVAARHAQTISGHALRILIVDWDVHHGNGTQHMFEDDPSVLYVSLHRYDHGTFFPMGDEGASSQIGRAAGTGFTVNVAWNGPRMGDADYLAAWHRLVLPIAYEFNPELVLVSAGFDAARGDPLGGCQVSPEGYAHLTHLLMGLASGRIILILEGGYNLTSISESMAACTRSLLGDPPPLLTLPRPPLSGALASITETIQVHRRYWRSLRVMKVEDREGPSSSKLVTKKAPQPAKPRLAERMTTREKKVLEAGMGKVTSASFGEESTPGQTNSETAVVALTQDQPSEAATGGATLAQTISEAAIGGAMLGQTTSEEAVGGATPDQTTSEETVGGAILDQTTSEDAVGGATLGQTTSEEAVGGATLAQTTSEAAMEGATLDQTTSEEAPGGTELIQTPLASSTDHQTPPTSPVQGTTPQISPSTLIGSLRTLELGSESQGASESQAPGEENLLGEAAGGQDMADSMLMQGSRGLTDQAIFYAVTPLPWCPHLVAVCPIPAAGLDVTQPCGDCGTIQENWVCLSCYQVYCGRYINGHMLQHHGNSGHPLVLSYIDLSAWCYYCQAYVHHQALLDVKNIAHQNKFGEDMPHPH
Description: as §1

hERG potassium channels = molecular target: T3, hERG potassium channels (Homo sapiens, UniProt Q12809); assay: hERG potassium channel whole-cell patch clamp; assay type: cell-based; settings: hERG-HEK293 cells, IKr current
T3 construct: expressed in transfected cells
T3 sequence (Q12809 whole entry): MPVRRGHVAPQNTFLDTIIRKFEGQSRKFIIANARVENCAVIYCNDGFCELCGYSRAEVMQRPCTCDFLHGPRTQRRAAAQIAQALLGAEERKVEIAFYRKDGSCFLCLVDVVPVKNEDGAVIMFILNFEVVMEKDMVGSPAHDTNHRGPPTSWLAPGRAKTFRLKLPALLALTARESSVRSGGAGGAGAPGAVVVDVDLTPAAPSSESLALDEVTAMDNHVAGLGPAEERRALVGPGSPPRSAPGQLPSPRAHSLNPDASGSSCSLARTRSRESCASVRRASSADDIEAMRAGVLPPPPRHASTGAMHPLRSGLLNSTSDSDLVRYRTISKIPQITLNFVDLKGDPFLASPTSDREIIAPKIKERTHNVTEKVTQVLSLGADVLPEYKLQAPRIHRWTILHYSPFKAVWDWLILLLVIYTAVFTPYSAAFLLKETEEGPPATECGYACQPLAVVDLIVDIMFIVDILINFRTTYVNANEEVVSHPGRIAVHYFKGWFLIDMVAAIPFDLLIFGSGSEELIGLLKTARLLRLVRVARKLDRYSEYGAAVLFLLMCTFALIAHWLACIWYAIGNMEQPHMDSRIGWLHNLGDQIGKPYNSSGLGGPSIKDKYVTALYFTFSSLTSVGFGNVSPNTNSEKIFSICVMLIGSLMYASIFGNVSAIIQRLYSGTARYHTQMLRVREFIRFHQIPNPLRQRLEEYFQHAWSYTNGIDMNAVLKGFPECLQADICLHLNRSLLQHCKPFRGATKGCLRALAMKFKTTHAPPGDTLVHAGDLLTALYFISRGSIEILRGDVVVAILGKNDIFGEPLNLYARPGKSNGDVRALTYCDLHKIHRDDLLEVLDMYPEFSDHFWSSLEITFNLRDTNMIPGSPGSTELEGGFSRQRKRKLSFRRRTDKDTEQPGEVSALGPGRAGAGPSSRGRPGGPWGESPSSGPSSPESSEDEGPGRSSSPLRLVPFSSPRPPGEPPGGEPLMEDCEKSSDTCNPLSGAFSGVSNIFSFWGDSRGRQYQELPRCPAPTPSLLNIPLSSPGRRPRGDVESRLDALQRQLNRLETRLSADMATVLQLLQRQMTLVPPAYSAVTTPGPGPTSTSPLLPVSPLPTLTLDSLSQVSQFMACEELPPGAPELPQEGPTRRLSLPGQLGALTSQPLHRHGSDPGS
Source text: Whole-cell patch clamp technique was used to record the changes of hERG current (IKr) after different concentrations of compounds acted on HEK293 cells (hERG-HEK293 steady-state cells) expressing hERG potassium channels to study the half inhibitory concentration (IC50) of the above compounds on IKr.

[1] = system: mixed cells and primary neurons in rat cortex; assay: Protective effect on HCA-induced neuronal cell damage; assay type: cell-based; settings: HCA 5 mmol/L; test concentration 0.1, 1.0 and 10.0 μM; compared with Tubastatin A at the same dose
[2] = Maximum tolerance dose by intragastric administration; settings: ICR, mouse, in vivo, po; mice, single intragastric administration, 14 days observation; read-out: maximum tolerated dose
Description: 40 ICR mice, half male and half […], weighing 18 to 20 g, were divided into 4 groups with 10 animals in each group. After 6 hours of fasting, the test samples in each group were taken with sterilized plastic syringe and orally gavaged at a volume of 0.3 mL/10 g. The general physical signs of animals and the death of animals were recorded at 1, 2 and 4 hours after administration. […] The dead animals were dissected to observe whether there were any visible pathological changes in the organs of the animals, and pathological examinations were carried out on suspicious tissues and organs.

[3] = system: myeloma cell line RPMI 8226; assay: In vitro anti-proliferative activity (CCK8), RPMI 8226; assay type: cell-based; settings: Homo sapiens, 48 hours, class symbol, read-out: RPMI 8226 (Myeloma) Inh % in 10 μM
Description: (§2) The specific results are shown in the table (unit: […] Test method: The tumor cells in the logarithmic growth phase with good growth status were inoculated into 96-well plates at 4×10^3 per well, and 8 duplicate wells were set up in each group. The cells were cultured in a cell incubator, after the cells adhered to the wall, […]. […] The experiment was repeated 3 times, and the average of the experimental results was taken as the final experimental result, and the inhibition rate was calculated.

[4] = system: MRC-5 human normal embryo lung fibroblast; assay: In vitro anti-proliferative activity (CCK8), MRC-5 normal cells; assay type: cell-based; settings: MRC5, 10 μM, 48 hours, CCK8, class symbol, read-out: MRC-5 (Normal cell line) Inh % in 10 μM
[5] = system: human lung cancer cell line A549; assay: In vitro anti-proliferative activity (CCK8), A549; assay type: cell-based; settings: A549, 10 μM, 48 hours, CCK8, class symbol, read-out: A549 (Lung cancer) Inh % in 10 μM
Description: as §2

[6] = system: human liver cancer cell line HepG2; assay: In vitro anti-proliferative activity (CCK8), HepG2; assay type: cell-based; settings: HepG2, 10 μM, 48 hours, CCK8, class symbol, read-out: Hep G2 (Liver cancer) Inh % in 10 μM
Description: as §2

glioma cell line U-87MG = assay: In vitro anti-proliferative activity (CCK8), U-87MG; assay type: cell-based; settings: Homo sapiens, 10 μM, 48 hours, CCK8, class symbol, read-out: U-87MG (Glioma) Inh % in 10 μM

T1 sequence (Q13547 whole entry): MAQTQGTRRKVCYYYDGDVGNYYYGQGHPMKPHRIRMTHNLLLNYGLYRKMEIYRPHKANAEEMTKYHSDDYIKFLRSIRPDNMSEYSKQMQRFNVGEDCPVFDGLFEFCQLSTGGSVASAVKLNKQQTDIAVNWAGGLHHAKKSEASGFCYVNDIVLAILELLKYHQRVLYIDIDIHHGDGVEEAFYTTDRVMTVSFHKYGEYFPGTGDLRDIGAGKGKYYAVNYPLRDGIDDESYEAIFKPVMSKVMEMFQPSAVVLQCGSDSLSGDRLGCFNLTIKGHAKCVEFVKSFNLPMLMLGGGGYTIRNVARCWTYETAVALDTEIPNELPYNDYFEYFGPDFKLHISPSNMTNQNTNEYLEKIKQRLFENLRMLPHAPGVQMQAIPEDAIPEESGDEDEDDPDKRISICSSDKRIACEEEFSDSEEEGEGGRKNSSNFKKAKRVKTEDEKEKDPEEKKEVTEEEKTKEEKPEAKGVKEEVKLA

Row | Compound | IC50 (HDAC1) [nM] | IC50 (HDAC6) [nM] | further results
1 | O=C(NO)c1ccc(CN2CCCCc3ccc(Cl)cc32)cc1 [Compound T-1, 4-((8-chloro-2,3,4,5-tetrahydro-1H-benzo[b]azepin-1-yl)methyl)-N-hydroxybenzamide] | > 500 | 37 | 
2 | O=C(NO)c1ccc(CN2CCCCc3ccc(Cl)cc32)cc1 [Compound T-2, 4-((8-chloro-2,3,4,5-tetrahydro-1H-benzo[b]azepin-1-yl)methyl)-N-hydroxybenzamide] | 406 | 14 | IC50 (hERG potassium channels): > 10 µM; protective effect against HCA-induced neuronal excitotoxicity (cell survival rate) [1]: stronger than that of the HDAC6 inhibitor compound Tubastatin A; MTD at 14 days [2]: > 1000 mg/kg; inhibition at 10 µM [3]: 90 to 100%; inhibition at 10 µM [4]: < 50%; inhibition at 10 µM [5]: 70 to 80%; inhibition at 10 µM [6]: 90 to 100%; inhibition at 10 µM (glioma cell line U-87MG): 80 to 90%
3 | O=C(NO)c1ccc(CN2CCCCc3ccc(N4CCCCC4)cc32)cc1 [Compound T-14, 4-((8-(piperidin-1-yl)-2,3,4,5-tetrahydro-1H-benzo[b]azepin-1-yl)methyl)-N-hydroxybenzamide] | > 500 | 142 | 
4 | CN1CCCN(Cc2ccc(C(=O)NO)cc2)c2ccccc21 [Compound T-17] | > 500 | 7.4 | 
5 | CN(C)C1CCCN(Cc2ccc(C(=O)NO)cc2)c2ccccc21 (stereo not drawn) [Compound T-21, 4-((5-dimethylamino-2,3,4,5-tetrahydro-1H-benzo[b]azepin-1-yl)methyl)-N-hydroxybenzamide] |  |  | IC50 (hERG potassium channels): > 10 µM; protective effect against HCA-induced neuronal excitotoxicity (cell survival rate) [1]: stronger than that of the HDAC6 inhibitor compound Tubastatin A; MTD at 14 days [2]: > 1000 mg/kg; inhibition at 10 µM [3]: 90 to 100%; inhibition at 10 µM [4]: < 50%; inhibition at 10 µM [5]: 70 to 80%; inhibition at 10 µM [6]: 90 to 100%; inhibition at 10 µM (glioma cell line U-87MG): 80 to 90%
6 | O=C(NO)c1ccc(CN2CCCCc3ccccc32)cc1F [Compound T-24, 4-((2,3,4,5-tetrahydro-1H-benzo[b]azepin-1-yl)methyl)-2-fluoro-N-hydroxybenzamide] | > 500 | 12 | 
7 | COc1ccc2c(c1)CCN(Cc1ccc(C(=O)NO)cc1)CC2 [Compound T-25, 4-((7-methoxy-1,2,4,5-tetrahydro-3H-benzo[d]azepin-3-yl)methyl)-N-hydroxybenzamide] | > 500 | 17 | 
8 | COc1cccc2c1CCN(Cc1ccc(C(=O)NO)cc1)CC2 [Compound T-26, 4-((6-methoxy-1,2,4,5-tetrahydro-3H-benzo[d]azepin-3-yl)methyl)-N-hydroxybenzamide] | > 500 | 97 | 

More lines, main results first:

Row | IC50 (HDAC1) [nM] | IC50 (HDAC6) [nM] | Compound | further results
9 | 400 | 43 | O=C(NO)c1ccc(CN2CCCCc3ccc(Br)cc32)cc1 [Compound T-3, 4-((8-bromo-2,3,4,5-tetrahydro-1H-benzo[b]azepin-1-yl)methyl)-N-hydroxybenzamide] | 
10 | 414 | 8.2 | O=C(NO)c1ccc(CN2CCCCc3cc(F)ccc32)cc1 [Compound T-4, 4-((7-fluoro-2,3,4,5-tetrahydro-1H-benzo[b]azepin-1-yl)methyl)-N-hydroxybenzamide] | 
11 | 294 | 8.2 | COc1ccc2c(c1)N(Cc1ccc(C(=O)NO)cc1)CCCC2 [Compound T-6, 4-((8-methoxy-2,3,4,5-tetrahydro-1H-benzo[b]azepin-1-yl)methyl)-N-hydroxybenzamide] | 
12 | 277 | 6.5 | COc1cccc2c1CCCCN2Cc1ccc(C(=O)NO)cc1 [Compound T-7, 4-((6-methoxy-2,3,4,5-tetrahydro-1H-benzo[b]azepin-1-yl)methyl)-N-hydroxybenzamide] | 
13 | 287 | 9.2 | COc1cccc2c1N(Cc1ccc(C(=O)NO)cc1)CCCC2 [Compound T-8, 4-((9-methoxy-2,3,4,5-tetrahydro-1H-benzo[b]azepin-1-yl)methyl)-N-hydroxybenzamide] | 
14 | 269 | 8.6 | COc1cc2c(cc1OC)N(Cc1ccc(C(=O)NO)cc1)CCCC2 [Compound T-9, 4-((7,8-dimethoxy-2,3,4,5-tetrahydro-1H-benzo[b]azepin-1-yl)methyl)-N-hydroxybenzamide] | 
15 | > 500 | 129 | O=C(NO)c1ccc(CN2CCCCc3ccc(-c4ccccc4)cc32)cc1 [Compound T-10, 4-((8-phenyl-2,3,4,5-tetrahydro-1H-benzo[b]azepin-1-yl)methyl)-N-hydroxybenzamide] | 
16 | > 500 | 14.3 | O=C(NO)c1ccc(CN2CCCCc3ccc(-c4ccncc4)cc32)cc1 [Compound T-11, 4-((8-(pyridin-4-yl)-2,3,4,5-tetrahydro-1H-benzo[b]azepin-1-yl)methyl)-N-hydroxybenzamide] | 
17 | > 500 | 45 | O=C(NO)c1ccc(CN2CCCCc3ccc(C4CC4)cc32)cc1 [Compound T-12, 4-((8-cyclopropyl-2,3,4,5-tetrahydro-1H-benzo[b]azepin-1-yl)methyl)-N-hydroxybenzamide] | 
18 | > 500 | 85 | CN(C)c1ccc2c(c1)N(Cc1ccc(C(=O)NO)cc1)CCCC2 [Compound T-13, 4-((8-dimethylamino-2,3,4,5-tetrahydro-1H-benzo[b]azepin-1-yl)methyl)-N-hydroxybenzamide] | 
19 | 421 | 7.2 | O=C(NO)c1ccc(CN2CCCC(=O)c3ccccc32)cc1 [Compound T-18, 4-((5-oxo-2,3,4,5-tetrahydro-1H-benzo[b]azepin-1-yl)methyl)-N-hydroxybenzamide] | 
20 | 431 | 29 | COc1ccc(Br)c2c1CCN(Cc1ccc(C(=O)NO)cc1)CC2 [Compound T-27, 4-((6-bromo-9-methoxy-1,2,4,5-tetrahydro-3H-benzo[d]azepin-3-yl)methyl)-N-hydroxybenzamide] | 
